Data on 1 molecule can be found in US10330673B2, “Fluorescent chemical sensor for biological amines” (The Curators of the University of Missouri, priority 2013, dated 2019).

Series [1] concerns epinephrine-enriched chromaffin cells. Description: Live-cell confocal imaging with Compound I-2, epinephrine-enriched cells. In kind it is cell-based, bovine. Particulars: 0.1 μM. On the procedure:
Chromaffin cells were separated into norepinephrine-enriched and epinephrine-enriched fractions by centrifugation on a Percoll gradient. Both populations were independently incubated with a 0.1 μM solution of Compound I-2 at 37° C. for 30 minutes and then washed to remove excess sensor and plated.
Chromaffin cells were isolated from bovine adrenal glands as previously described. Following centrifugation at 18° C. at 13,000 rpm for 45 minutes in the Percoll gradient, chromaffin cells separate into fractions enriched with either epinephrine-enriched cells (denser band) and norepinephrine-enriched cells (lighter band). Moro, M. A.; Lépez, M. G.; Gandía, L.; Michelena, P.; Garcia, G. Separation and culture of living adrenaline- and noradrenaline-containing cells from bovine adrenal medullae. Anal. Biochem. 1990, 185, 243-248. Over 90% of the catecholamine content found in the cells in the denser fraction are epinephrine, whereas approximately 67% of the catecholamine content in the lighter fraction are norepinephrine. Liu, X.; Barizuddin, S.; Shin, W.; Mathai, C. J.; Gangopadhyay, S.; Gillis, K. D. Microwell device for targeting single cells to electrochemical microelectrodes for high-throughput amperometric detection of quantal exocytosis. Anal. Chem. 2011, 83, 2445-2451. The two cell fractions were collected from the Percoll gradient with careful pipetting and separately cultured. […]

A short description of series [2]: Fluorescence quantum yield, unbound fluorophore. Particulars: no amine guest (sensor alone). Type of series: physicochemical. Here is the method: Steady-state fluorescence spectroscopic studies were performed using a Horiba Scientific Fluorolog-3 Model FL3C-111 spectrofluorometer and data was collected and analyzed using HJY FluorEssence™ 3.5.1.20 software package. UV-visible spectra were obtained on a Varian Cary 1E UV-visible spectrophotometer. A stock solution of each benzene- or thiophene-based coumarin-3-aldehyde derivative (1 μM) in buffer (25 mM HEPES, 50 mM Na2S2O3, pH=5.0) was prepared. Each solution contained 1% (v/v) DMSO as a cosolvent except as noted. The slit width was 2 nm for both excitation and emission. The bound benzene- and thiophene-coumarin-3-aldehyde derivatives contained 500 mM glutamate (pH=5.0).
To determine the relative quantum yield of fluorescence (Φfl) for the benzene-based derivatives, a 1.0 μM solution of fluorescein (absolute Φfl=0.85) in 0.1 N NaOH (pH 13) was used as a fluorescence standard. The unbound derivatives were excited at 473 nm and the bound derivatives were excited at 488 nm. To determine the relative quantum yield of fluorescence (Φfl) for the thiophene-based derivatives, a 1.0 μM solution of rhodamine B (absolute Φfl=0.31) in water (pH 7) was used as a fluorescence standard. The unbound derivatives were excited at 473 nm and the bound derivatives were excited at 515 nm. Quantum yields were obtained in triplicate and calculated as per the following equation: […]

Series [3] in a line: Fluorescence titration of sensor with norepinephrine. Particulars: for Ka: pH 5.0, 37° C. In kind it is binding. On the procedure: (§1) Fluorescence spectra were recorded on a Shimadzu RF-5301 PC spectrofluorometer at 37° C. A 1 mg/mL stock solution of I-2 in DMSO was prepared. A stock solution of I-2 in buffer (1×10^−5 M, 25 mM HEPES, 50 mM Na2S2O3, pH=5.0) was prepared. Norepinephrine, dopamine, epinephrine, and glutamate stock solutions were prepared by separately dissolving the analytes at the concentration to be used in the titration with the buffered stock solution of I-2 (thus avoiding dilution of I-2 during the experiment). I-2 was titrated with aliquots of analyte solution. The sensor was excited at 488 nm with slit widths of 5 nm.
(§2) Fluorescence spectra were recorded on a Shimadzu RF-5301 PC spectrofluorometer at 37° C. A separate 1 mg/mL stock solution of each coumarin-3-aldehyde derivative in DMSO was prepared. An aqueous stock solution of each derivative (10 μM) in buffer (25 mM HEPES, 50 mM Na2S2O3, pH=5.0) was prepared. Norepinephrine, dopamine, glutamate, and epinephrine stock solutions were prepared by separately dissolving the solid analytes at the concentration to be used in the titration with the buffered stock solutions described above and thus, avoiding dilution of the sensor during the experiment. The benzene-based NS521 derivatives were excited at 488 nm. The thiophene-based derivatives were excited at 515 nm.

Series [4] is described as follows: Fluorescence titration of sensor with lysine. Type of series: binding. As to conditions: amine guest lysine.
Series [5] can be described thus: Fluorescence titration of sensor with glutamate. Type of series: binding. Particulars: for Ka: pH 5.0, 37° C. On the procedure:
as §1, §2

Where [6] appears, read: Table 2, analyte norepinephrine, benzene-based compounds I, excited at 488 nm.
Where [7] appears, read: Table 2, analyte glutamate, benzene-based compounds I, excited at 488 nm.

Turning to `CCN(CC)c1ccc2c(-c3ccc(OC)cc3)c(C=O)c(=O)oc2c1` [Compound I-2, 7-diethylamino-3-formyl-4-(4′-methoxyphenyl)coumarin], the “cell fluorescence, confocal microscopy” value is recorded as “marginal fluorescence” in series [1] (37° C., 30 minutes, 488 nm excitation (bound sensor)) and “No significant fluorescence” in series [1] (excited at 440 nm (unbound sensor)). In addition, the “Quantum Yield (Φ)” value in series [2] worked out at 0.0029. The values for the F.E. in series [3] (setting [6]) and in series [5] (setting [7]) were 5.40 and 7.82, respectively. Moreover, the Ka in series [3] (setting [6]) amounted to 77.76 M⁻¹; in series [3] (amine guest norepinephrine, fluorescence spectroscopy, λex = 488 nm, λem = 521 nm), 75 M⁻¹; in series [4] (fluorescence spectroscopy, λex = 488 nm, λem = 521 nm), 11 M⁻¹; in series [5] (setting [7]) it was 9.63 M⁻¹; in series [5] (amine guest glutamate, fluorescence spectroscopy, λex = 488 nm, λem = 521 nm), 10 M⁻¹. The “Isat/Io (λex = 488 nm)” value came to 5.3 in series [3] (amine guest norepinephrine, intensity at saturation from fit to binding isotherm); 15.1 in series [4] (intensity at saturation from fit to binding isotherm); 7.8 in series [5] (amine guest glutamate, intensity at saturation from fit to binding isotherm). Also, the “binding constants of catecholamines (norepinephrine, dopamine) relative to other alkyl amines such as glycine” value in series [3] (higher binding constants) was found to be 10 fold.
